Reference: patent US5134137A, “Cephalosporin antibiotics” (The Upjohn Company, priority 1990, dated 1992)
Converted amounts (≈) assume the structure as drawn. Like-named read-outs stand apart in the source and are kept apart here.

Legend:
Type in all cases: cell-based
[1] = tested on: Pasteurella hemolytica; test: MIC (minimum inhibitory concentration), agar dilution, Pasteurella hemolytica; conditions: Pasteurella, read-out: MIC
Protocol: (§1) Stock solution of each test antibiotic compound were prepared to have a concentration of 2 mg. of the test compound per milliliter in sterile water of 0.1M ammonium acetate solution. The amount of each compound used was adjusted for base compound activity as calculated from the purity data for the selected batch of compound.
(§2) The dilution procedure described by Washington and Sutter [Manual of Clinical Microbiology, 3rd, Edit. (Lennett, E. H. et al, Eds.), pp. 453-458 (1980), American Society for Microbiology, Washington, D.C.] was modified so that serial concentrations of 128 to 0.0625 microgram/ml. in sterile water was obtained. Then 1.5 ml. aliquots of these test antibiotic dilution mixtures are added to 13.5 molten (50° C.) Mueller-Hinton agar. Each resulting mixture is poured into 15×100 mm, sterile Petri plates and allowed to dry at room temperature overnight.
(§3) Test bacterial cultures are maintained at -70° C. on glass beads. [See R. J. Yancey, Jr. et al, Amer. Jr. of Vet. Research, 48, No. 7, pp. 1050-1053, (1987)]. At least one bacteria-laden bead per culture is dropped into one ml. of brain heart infusion (BHI) broth for overnight culture at 37° C. in 5% V/V carbon dioxide in air atmosphere.
(§4) On the data of assay, 2 to 8 drops of the bacterial broth cultures are transferred to fresh BHI broth (1 ml.) and the mixture is incubated for 4 to 6 hours at 37° C. in a 5% V/V carbon dioxide in air atmosphere. The resulting cultures are then diluted to match a 0.5 MacFarland standard and further diluted 1:20 V/V with sterile saline solution.
(§5) A 0.001 ml. drop of the resulting mixture, containing approximately 10^3 to 10^4 colony forming units (CFU) of each test bacteria organism, is dispensed onto the surface of the test antibiotic compound test plates with a Steer's type replicator. The resulting innoculated plates are incubated 16 to 18 hours at 37° C. with a carbon dioxide atmosphere.
as §1, with “Stock solutions” for “Stock solution”
as §2, with “mm.” for “mm,”
as §2, with “for Microbiology.” for “for Microbiology,”, “15×100 mm.” for “15×100 mm,”
as §3, with “culture” for “cultures”
(§6) On the day of assay, 2 to 8 drops of the bacterial broth cultures are transferred to fresh BHI broth (1 ml.) and the mixture is incubated for 4 to 6 hours at 37° C. in a 5% V/V carbon dioxide in air atmosphere. […]

[2] = tested on: Pasteurella multocida; test: MIC, agar dilution, Pasteurella multocida; conditions: Pasteurella multocida; strain UC9581; read-out: MIC
Protocol: as §1, §2, §3, §4, §5
as §1, with “Stock solutions” for “Stock solution”
as §2, with “mm.” for “mm,”
as §2, with “for Microbiology.” for “for Microbiology,”, “15×100 mm.” for “15×100 mm,”
as §3, with “culture” for “cultures”
as §6

[3] = tested on: Escherichia coli; test: MIC, agar dilution, Escherichia coli; conditions: Escherichia coli, read-out: MIC
Protocol: as §1, §2, §3, §4, §5
as §1, with “Stock solutions” for “Stock solution”
as §2, with “mm.” for “mm,”
as §2, with “for Microbiology.” for “for Microbiology,”, “15×100 mm.” for “15×100 mm,”
as §3, with “culture” for “cultures”
as §6

[4] = tested on: Salmonella choleraesuis; test: MIC, agar dilution, Salmonella choleraesuis; conditions: Salmonella enterica, read-out: MIC
Protocol: as §1, §2, §3, §4, §5
as §1, with “Stock solutions” for “Stock solution”
as §2, with “mm.” for “mm,”
as §2, with “for Microbiology.” for “for Microbiology,”, “15×100 mm.” for “15×100 mm,”
as §3, with “culture” for “cultures”
as §6

[5] = tested on: Salmonella typhimurium; test: MIC, agar dilution, Salmonella typhimurium; conditions: Salmonella enterica, read-out: MIC
Protocol: as §1, §2, §3, §4, §5
as §1, with “Stock solutions” for “Stock solution”
as §2, with “mm.” for “mm,”
as §2, with “for Microbiology.” for “for Microbiology,”, “15×100 mm.” for “15×100 mm,”
as §3, with “culture” for “cultures”
as §6

[6] = tested on: Bordetella bronchiseptica; test: MIC, agar dilution, Bordetella bronchiseptica; conditions: Bordetella bronchiseptica; strain UC6313; read-out: MIC
Protocol: as §1, §2, §3, §4, §5
as §1, with “Stock solutions” for “Stock solution”
as §2, with “mm.” for “mm,”
as §2, with “for Microbiology.” for “for Microbiology,”, “15×100 mm.” for “15×100 mm,”
as §3, with “culture” for “cultures”
as §6

[7] = tested on: Pseudomonas aeruginosa; test: MIC, agar dilution, Pseudomonas aeruginosa; conditions: Pseudomonas aeruginosa, ATCC27853; strain ATCC 27853; read-out: MIC
Protocol: as §1, §2, §3, §4, §5
as §1, with “Stock solutions” for “Stock solution”
as §2, with “mm.” for “mm,”
as §2, with “for Microbiology.” for “for Microbiology,”, “15×100 mm.” for “15×100 mm,”
as §3, with “culture” for “cultures”
as §6

[8] = tested on: Staphylococcus aureus; test: MIC, agar dilution, Staphylococcus aureus; conditions: Staphylococcus aureus, read-out: MIC
Protocol: as §1, §2, §3, §4, §5
as §1, with “Stock solutions” for “Stock solution”
as §2, with “mm.” for “mm,”
as §2, with “for Microbiology.” for “for Microbiology,”, “15×100 mm.” for “15×100 mm,”
as §3, with “culture” for “cultures”
as §6

[9] = tested on: Streptococcus agalactiae; test: MIC, agar dilution, Streptococcus agalactiae; conditions: Streptococcus agalactiae, read-out: MIC
Protocol: as §1, §2, §3, §4, §5
as §1, with “Stock solutions” for “Stock solution”
as §2, with “mm.” for “mm,”
as §2, with “for Microbiology.” for “for Microbiology,”, “15×100 mm.” for “15×100 mm,”
as §3, with “culture” for “cultures”
as §6

[10] = tested on: Streptococcus bovis; test: MIC, agar dilution, Streptococcus bovis; conditions: Streptococcus equinus; strain UC6281; read-out: MIC
Protocol: as §1, §2, §3, §4, §5
as §1, with “Stock solutions” for “Stock solution”
as §2, with “mm.” for “mm,”
as §2, with “for Microbiology.” for “for Microbiology,”, “15×100 mm.” for “15×100 mm,”
as §3, with “culture” for “cultures”
as §6

[11] = tested on: Streptococcus dysgalactiae; test: MIC, agar dilution, Streptococcus dysgalactiae; conditions: Streptococcus dysgalactiae; strain UC251; read-out: MIC
Protocol: as §1, §2, §3, §4, §5
as §1, with “Stock solutions” for “Stock solution”
as §2, with “mm.” for “mm,”
as §2, with “for Microbiology.” for “for Microbiology,”, “15×100 mm.” for “15×100 mm,”
as §3, with “culture” for “cultures”
as §6

[12] = tested on: Enterococcus faecium; test: MIC, agar dilution, Enterococcus faecium; conditions: Enterococcus faecium; strain UC241; read-out: MIC
Protocol: as §1, with “Stock solutions” for “Stock solution”
as §2, §3, §4, §5, §1
as §2, with “mm.” for “mm,”
as §2, with “for Microbiology.” for “for Microbiology,”, “15×100 mm.” for “15×100 mm,”
as §3, with “culture” for “cultures”
as §6

[13] = tested on: Enterococcus faecalis; test: MIC, agar dilution, Enterococcus faecalis; conditions: Enterococcus faecalis; strain UC694; read-out: MIC
Protocol: as §1, with “Stock solutions” for “Stock solution”
as §2, §3, §4, §5, §1
as §2, with “mm.” for “mm,”
as §2, with “for Microbiology.” for “for Microbiology,”, “15×100 mm.” for “15×100 mm,”
as §3, with “culture” for “cultures”
as §6

[14] = tested on: Streptococcus suis; test: MIC, agar dilution, Streptococcus suis; conditions: Streptococcus suis; strain 650-2; read-out: MIC
Protocol: as §1, §2, §3, §4, §5
as §1, with “Stock solutions” for “Stock solution”
as §2, with “mm.” for “mm,”
as §2, with “for Microbiology.” for “for Microbiology,”, “15×100 mm.” for “15×100 mm,”
as §3, with “culture” for “cultures”
as §6

[15] = tested on: Streptococcus uberis; test: MIC, agar dilution, Streptococcus uberis; conditions: Streptococcus uberis, read-out: MIC
Protocol: as §1, §2, §3, §4, §5
as §1, with “Stock solutions” for “Stock solution”
as §2, with “mm.” for “mm,”
as §2, with “for Microbiology.” for “for Microbiology,”, “15×100 mm.” for “15×100 mm,”
as §3, with “culture” for “cultures”
as §6

[16] = tested on: Corynebacterium pyogenes; test: MIC, agar dilution, Corynebacterium pyogenes; conditions: strain 213-2; read-out: MIC
Protocol: as §1, §2, §3, §4, §5
as §1, with “Stock solutions” for “Stock solution”
as §2, with “mm.” for “mm,”
as §2, with “for Microbiology.” for “for Microbiology,”, “15×100 mm.” for “15×100 mm,”
as §3, with “culture” for “cultures”
as §6

[17] = tested on: Micrococcus luteus; test: MIC, agar dilution, Micrococcus luteus; conditions: Micrococcus luteus; strain UC130; read-out: MIC
Protocol: as §1, §2, §3, §4, §5
as §1, with “Stock solutions” for “Stock solution”
as §2, with “mm.” for “mm,”
as §2, with “for Microbiology.” for “for Microbiology,”, “15×100 mm.” for “15×100 mm,”
as §3, with “culture” for “cultures”
as §6

[18] = CHOLERAESUIS / UC6073, strain UC6073
[19] = CHOLERAESUIS / UC6077, strain UC6077
[20] = TYPHIMURIUM / UC6162, strain UC6162
[21] = TYPHIMURIUM / UC6164, strain UC6164

MIC [2] | MIC ([3]; strain UC3784) | MIC ([3]; strain UC6720) | MIC ([3]; strain UC9670) | MIC [5, 20] | MIC [5, 21] | MIC [6] | MIC [7] | MIC ([8]; strain UC6093) | MIC ([8]; strain UC6097) | MIC ([8]; strain UC9203) | MIC ([9]; strain UC3947) | MIC ([9]; strain UC6892) | MIC [10] | MIC [11] | SMILES | MIC ([1]; strain UC6531) | MIC ([1]; strain UC6532) | MIC ([1]; strain UC9582) | MIC [4, 18] | MIC [4, 19] | also measured
≤ 0.06 µg/mL | 8 µg/mL (≈ 14.9 µM) | 8 µg/mL (≈ 14.9 µM) | 8 µg/mL (≈ 14.9 µM) | 16 µg/mL (≈ 29.8 µM) | 8 µg/mL (≈ 14.9 µM) | > 32 µg/mL | > 32 µg/mL | 2 µg/mL (≈ 3.72 µM) | 2 µg/mL (≈ 3.72 µM) | 2 µg/mL (≈ 3.72 µM) | ≤ 0.06 µg/mL | ≤ 0.06 µg/mL | ≤ 0.06 µg/mL | ≤ 0.06 µg/mL | CO/N=C(\C(=O)N[C@@H]1C(=O)N2C(C(=O)O)=C(CSSc3ccccc3)CS[C@H]12)c1csc(N)n1 [Example 15] | 0.13 µg/mL (≈ 0.242 µM) | 0.25 µg/mL (≈ 0.465 µM) | 0.25 µg/mL (≈ 0.465 µM) | 32 µg/mL (≈ 59.5 µM) | 32 µg/mL (≈ 59.5 µM) | MIC [12]: > 32 µg/mL; MIC [13]: > 32 µg/mL; MIC [14]: ≤ 0.06 µg/mL; MIC ([15]; strain UC3946): ≤ 0.06 µg/mL; MIC ([15]; strain UC6159): 16 µg/mL (≈ 29.8 µM); MIC [16]: 4 µg/mL (≈ 7.44 µM); MIC [17]: ≤ 0.06 µg/mL
1 µg/mL (≈ 1.85 µM) | 4 µg/mL (≈ 7.38 µM) | 8 µg/mL (≈ 14.8 µM) | 4 µg/mL (≈ 7.38 µM) | 16 µg/mL (≈ 29.5 µM) | 8 µg/mL (≈ 14.8 µM) | > 32 µg/mL | > 32 µg/mL | 1 µg/mL (≈ 1.85 µM) | 2 µg/mL (≈ 3.69 µM) | 1 µg/mL (≈ 1.85 µM) | ≤ 0.06 µg/mL | ≤ 0.06 µg/mL | ≤ 0.06 µg/mL | ≤ 0.06 µg/mL | CO/N=C(\C(=O)N[C@@H]1C(=O)N2C(C(=O)O)=C(CSSCc3ccco3)CS[C@H]12)c1csc(N)n1 [Example 16] | 0.25 µg/mL (≈ 0.462 µM) | 0.13 µg/mL (≈ 0.24 µM) | 0.13 µg/mL (≈ 0.24 µM) | 16 µg/mL (≈ 29.5 µM) | 32 µg/mL (≈ 59.1 µM) | MIC [12]: > 32 µg/mL; MIC [13]: > 32 µg/mL; MIC [14]: ≤ 0.06 µg/mL; MIC ([15]; strain UC3946): ≤ 0.06 µg/mL; MIC ([15]; strain UC6159): 4 µg/mL (≈ 7.38 µM); MIC [16]: 0.13 µg/mL (≈ 0.24 µM); MIC [17]: ≤ 0.06 µg/mL
≤ 0.06 µg/mL | 2 µg/mL (≈ 3.5 µM) | 4 µg/mL (≈ 6.99 µM) | 8 µg/mL (≈ 14 µM) | 4 µg/mL (≈ 6.99 µM) | 4 µg/mL (≈ 6.99 µM) | > 32 µg/mL | > 32 µg/mL | 4 µg/mL (≈ 6.99 µM) | 2 µg/mL (≈ 3.5 µM) | 2 µg/mL (≈ 3.5 µM) | ≤ 0.06 µg/mL | ≤ 0.06 µg/mL | ≤ 0.06 µg/mL | ≤ 0.06 µg/mL | CO/N=C(\C(=O)N[C@@H]1C(=O)N2C(C(=O)O)=C(CSSc3ccc(Cl)cc3)CS[C@H]12)c1csc(N)n1 [Example 17] | ≤ 0.06 µg/mL | 0.13 µg/mL (≈ 0.227 µM) | 0.13 µg/mL (≈ 0.227 µM) | 8 µg/mL (≈ 14 µM) | 8 µg/mL (≈ 14 µM) | MIC [12]: > 32 µg/mL; MIC [13]: > 32 µg/mL; MIC [14]: ≤ 0.06 µg/mL; MIC ([15]; strain UC3946): ≤ 0.06 µg/mL; MIC ([15]; strain UC6159): 4 µg/mL (≈ 6.99 µM); MIC [16]: ≤ 0.06 µg/mL; MIC [17]: ≤ 0.06 µg/mL
